Experimental data: article PMC9965539, “Adverse Toxic Effects of Tyrosine Kinase Inhibitors on Non-Target Zebrafish Liver (ZFL) Cells” (International Journal of Molecular Sciences, 2023)
Blank lines part the entries; values can stand above or below the compound they belong to.

Experiments:
[1] = tested on: zebrafish liver cells (ZFL); assay: Micronucleus detection by flow cytometry; type: cell-based; settings: 72 h; for MNi frequency: non-cytotoxic concentrations
Protocol: ZFL cells were seeded onto 24-well culture plates (Nunclon) at a density of 35,000 cells per well for 24 h. […] Etoposide (0.17 μM and 0.68 μM) was used as a positive control. After 72 h, cells were placed on ice for 20 min, and subsequently a 0.05 mg/mL EMA solution was added to each well. The cells were placed on ice for 30 min and exposed to light for photoactivation of the EMA fluorochrome. Afterwards, cells were washed and resuspended in lysis solution (0.584 mg/mL NaCl, 1 mg/mL sodium citrate, and 0.3 μL/mL Triton X-100) containing 0.2 μM SYTOX Green and 0.25 mg/mL RNAse A, and incubated for 1 h in the dark at 37 °C. After incubation, lysis solution (85.6 mg/mL sucrose and 15 mg/mL citric acid) containing 0.2 μM SYTOX Green was added to the wells of the plate and incubated for a further 30 min at room temperature in the dark. Cells were analyzed on the same day using MACSQuant Analyzer 10 flow cytometer. MASCQuantify Software 2.11. was used to analyze each sample, and the percentage of micronuclei was determined after the acquisition of a total of 20,000 gated nuclei events, excluding EMA-positive events. One-way ANOVA with post hoc multiple comparison Dunett’s test using GraphPad Prism V6 (GraphPad Software, Carlsbad, CA, USA) was carried out. * p < 0.05 and *** p < 0.0001 were considered statistically significant.

[2] = tested on: zebrafish liver cells (ZFL); assay: Alkaline comet assay (DNA strand breaks); type: cell-based; settings: 24 h of exposure, non-cytotoxic concentrations
Protocol: The induction of DNA strand breaks after TKI exposure was assessed by the comet assay according to Møller et al., with minor modifications. Briefly, ZFL cells were seeded at a density of 100,000 cells/well onto 12-well cell culture plates (Corning Costar Corporation, New York, NY, USA) and incubated for 24 h to attach. […] B(a)P (50 μM) was used as a positive control. After treatment, ZFL cells were trypsinized, collected, and centrifuged. Thirty μL of the cell suspension was mixed with 70 μL of 1% LMP agarose and placed on fully frosted slides pre-coated with 80 μL of 1% NMP agarose. Cells were then lysed for 1 h at 4 °C (2.5 M NaCl, 100 mM EDTA, 10 mM Tris, 1% Triton X-100, pH 10). DNA was subsequently denatured in electrophoresis buffer (1 mM EDTA, 300 mM NaOH, pH 13) for 20 min at 4 °C and slides were electrophoresed at 25 V (at 1 V/cm) for 20 min. Finally, nuclei were stained with GelRed (Biotium, Fremont, CA, USA). Images of 50 randomly selected nuclei per experimental point were acquired with the Eclipse 800 fluorescence microscope (Nikon, Tokyo, Japan) at 400× magnification using image analysis software (Comet Assay IV, Instem, UK). The statistical significance between control and treated groups was determined by one-way analysis of variance (ANOVA, Kruskal–Wallis) and Dunn’s multiple comparison test. * p < 0.05 was considered statistically significant.

[3] = tested on: zebrafish liver cells (ZFL); assay: Cell cycle analysis with flow cytometry; type: cell-based; settings: 72 h; for effect on cell cycle progression: concentration-dependent, parallel decrease in S-phase fraction
Protocol: ZFL cells were seeded onto T25 culture plates at a density of 450,000 cells for 24 h. […] The positive control was etoposide (0.17 μM), which is known to arrest cells in the G2/M phase of the cell cycle. After 72 h, cells were trypsinized (0.25% trypsin-EDTA) and washed with 1x PBS before fixation in 4% paraformaldehyde (PFA). For flow cytometric analysis, fixed cells were washed in cold 1x PBS and stained with Hoechst 33258 dye (diluted in 0.1% Triton X-100 1:500) as described by Stampar et al.. Flow cytometric measurements were performed using a MACSQuant Analyzer 10 and the experiment was repeated three times independently. Each time, 20,000 single cells were recorded per experimental point. The data obtained were analyzed using FlowJo V10 software (Becton Dickinson, Franklin Lakes, NJ, USA). Statistical analysis for cell cycle was performed by the two-way ANOVA with Fisher’s LSD test using GraphPad Prism V6 (GraphPad Software, La Jolla, CA, USA). * p < 0.05, ** (p < 0.01), *** (p < 0.001) were considered statistically significant.

[4] = MTS assay, viability of ZFL cells; type: cell-based, zebrafish; settings: zebrafish, ZFL cells (zebrafish liver cell line), ZFL cells, read-out: IC50 for TKIs Cytotoxicity (95% Confidence Interval)
Protocol: (§1) The viability of ZFL cells after 24, 48, and 72 h of exposure to TKIs was determined using the tetrazolium-based (MTS) assay (Cell Titer 96 AQueous Non-Radioactive Cell Proliferation Assay; Promega, Madison, WI, USA) as previously described by Novak et al.. Cells were seeded in 96-well microtiter plates (Corning Costar Corporation, New York, NY, USA) at a density of 7000 cells/well. […] Three independent experiments were performed, each with five replicates per treatment point. The statistical significance between the treated groups and the solvent control was determined by Student’s t-test using GraphPad Prism V6 (GraphPad Software, La Jolla, CA, USA). *** (p < 0.001)was considered statistically significant.

[5] = tested on: zebrafish liver cells (ZFL); assay: MTS assay, viability of ZFL cells; type: cell-based; settings: for viability of the ZFL cells: 24, 48, 72 h, dose- and time-dependent, ERL and NIL up to their maximum solubility; for cytotoxic effects in ZFL cells (MTS): concentrations up to 60 µM, up to 72 h exposure
Protocol: as §1

[6] = tested on: human lymphocytes or Chinese hamster ovary cells in vitro and rat bone marrow; settings: ref 11 (REG), 69 (ERL), 59 (NIL); cited from earlier work
[7] = tested on: zebrafish liver cells (ZFL); assay: Propidium iodide live/dead staining by flow cytometry; type: cell-based; settings: for percentage of PI negative cells: 72 h exposure, low concentrations
Protocol: Benzo[a]pyrene (50 μM), an indirect-acting genotoxic agent which requires metabolic activation for its genotoxic effects, and etoposide (0.17 μM), a direct-acting genotoxic agent, were selected as positive controls. After 72 h, floating and adherent cells were collected, resuspended in ice-cold 1x PBS, and immediately analyzed. Propidium iodide (PI) at a final concentration of 1 μg/mL was added to the cells 5 min before the start of measurements using the MACSQuant Analyzer 10 flow cytometer (Miltenyi Biotech, Bergisch Gladbach, Germany). MASCQuantifiy software (Miltenyi Biotech, Bergisch Gladbach, Germany) was used to quantify PI negative and positive cells. The experiments were repeated three times independently. Statistical significance between the treated groups and control was determined by one-way ANOVA with post hoc multiple comparison Dunett’s test using GraphPad Prism V6 (GraphPad Software, La Jolla, CA, USA). * p < 0.05 was considered statistically significant.

[8] = tested on: certain target cancer cells; design: method as in ref 56, 57 (DAS), 58, 59 (REG); settings: in vitro; 57 (DAS), 58, 59 (REG); cited from earlier work
[9] = tested on: human lymphoblastoid TK6 cells; design: method as in PMID 25111698; settings: up to 4.4 μM, 24 h, without and with metabolic activation; cited from earlier work
H295R cells = tested on: H295R cells; design: method as in Silveira et al. 28; settings: 10 µM; ref Silveira et al. 28; cited from earlier work
Huh-7 cells = settings: 24 h; cited from earlier work
HepG2 cells = settings: 24 h of exposure; cited from earlier work
Alium cepa = tested on: Alium cepa; design: method as in doi:10.1508/cytologia.86.195; settings: dose-dependent; cited from earlier work
HepG2 and HepaRG cells = tested on: HepG2 and HepaRG cells; design: method as in PMID 28659801; settings: 20 µM highest concentration tested; cited from earlier work
A549 cells = tested on: A549 cells; design: method as in Kryeziu et al. 65; settings: 20 µM, 6 h exposure; ref Kryeziu et al. 65; cited from earlier work
[10] = tested on: human ovarian cancer cells (SKOV-3 cells); design: method as in Mak et al. 66; settings: 10 µM, 72 h; ref Mak et al. 66; cited from earlier work
[11] = tested on: ovarian carcinoma A2780 cells; design: method as in PMID 28223694; settings: up to 10 μM, 24 h; cited from earlier work
H520 and H1975 cells = tested on: H520 and H1975 cells; design: method as in PMID 24447935; settings: highest concentration tested; cited from earlier work

percentage of PI negative cells [7]: did not significantly decrease
Compound: CNC(=O)c1cc(Oc2ccc(NC(=O)Nc3ccc(Cl)c(C(F)(F)F)c3)c(F)c2)ccn1 [REG, regorafenib]
MNi frequency [1]: did not significantly increase | concentration with statistically significant increase in percentage of tail DNA [2]: ≥ 800 nM | concentration that induced G0/G1 cell cycle arrest with decrease in number of cells in S phase [3]: 3 µM | effect on cell cycle progression [3]: arrest of the cell cycle in the G0/G1 phase | IC50 at 24 h ([4]; 24 h exposure): 5.64 µM | IC50 at 48 h ([4]; 48 h exposure): 4.54 µM | IC50 at 72 h ([4]; 72 h exposure): 3.59 µM | viability of the ZFL cells [5]: reduced | mutagenicity/genotoxicity (chromosomal damage/genomic instability) [6]: not mutagenic/genotoxic | DNA damage assessed by comet assay [8]: induce DNA damage | MNi formation [9]: did not induce MNi formation

Compound: COc1cc([C@@H]2c3cc4c(cc3[C@@H](O[C@@H]3O[C@@H]5CO[C@@H](C)O[C@H]5[C@H](O)[C@H]3O)[C@H]3COC(=O)[C@H]23)OCO4)cc(OC)c1O [etoposide, Etoposide]
MNi in representative dot plot ([1]; 0.17 μM): increased amount of MNi

Compound: Cc1cn(-c2cc(NC(=O)c3ccc(C)c(Nc4nccc(-c5cccnc5)n4)c3)cc(C(F)(F)F)c2)cn1 [NIL, nilotinib]
MNi frequency [1]: did not significantly increase | decrease of survival (H295R cells): 62.9% | concentration with statistically significant increase in percentage of tail DNA [2]: ≥ 2000 nM | viability of the ZFL cells [5]: did not affect cell viability | cytotoxic effects in ZFL cells (MTS) [5]: no cytotoxic effects | decrease of the percentage of PI negative cells ([7]; highest concentration tested, 72 h): approximately 20%

Compound: C#Cc1cccc(Nc2ncnc3cc(OCCOC)c(OCCOC)cc23)c1 [ERL, erlotinib]
concentration with cell cycle arrest (Huh-7 cells): 25 µM | MNi frequency [1]: did not significantly increase | concentration inducing apoptosis (HepG2 cells): 25 µM | concentration inducing cell cycle arrest (HepG2 cells): 10 µM | mitotic index and cytological aberrations (Alium cepa): decreased the mitotic index and increased cytological aberrations | concentration that induced G0/G1 cell cycle arrest with decrease in number of cells in S phase [3]: 40 µM | effect on cell cycle progression [3]: arrest of the cell cycle in the G0/G1 phase | viability of the ZFL cells [5]: did not affect cell viability | cytotoxic effects in ZFL cells (MTS) [5]: no cytotoxic effect | cytotoxicity (HepG2 and HepaRG cells): only slight cytotoxicity | DNA damage (alkaline comet assay) (A549 cells): did not induce DNA damage | mutagenicity/genotoxicity (chromosomal damage/genomic instability) [6]: not mutagenic/genotoxic | percentage of PI negative cells [7]: did not significantly decrease | percentage of tail DNA [10]: increases the percentage of tail DNA | MNi formation [11]: did not induce MNi formation | reduction in viability (H520 and H1975 cells): 20%
